From patent US12552763B2, “Methods of protecting against neurodegeneration” (BioVentures, LLC, priority 2017, dated 2026)
Entries after “also recorded” stand apart in the source; their conditions may differ.

Tests used:
[1] = test system: C. elegans strain AM141 (Q40::YFP aggregates); assay: Q40::YFP aggregate foci in C. elegans strain AM141 (Huntington-like polyglutamine aggregation model); format: in vivo; details: for reduction of aggregate count (aggregate foci): strain AM141, Q40::YFP in muscle, FIG. 3
Description: C. elegans (AM141) adults were imaged at 7 days of adult age and quantified for intensity (FIG. 2A) and number (FIG. 2B) of Q40::YFP aggregates after 0, 1, 3, or 6 d of exposure to 50-nM PNR-5-02. Treated worms differ from untreated worms (“Days Tx”=0) by 2-tailed t test: *P<0.01; **P<1E-4.
FIG. 3 depicts a graph showing reduction of protein aggregation in a C. elegans model of Huntington's disease or other neurodegenerative diseases featuring aggregates that contain polyglutamine tracts. Strain AM141, which expresses Q40::YFP in muscle, undergoes age-progressive accumulation of aggregate foci. PNR-5-02 analogues confer at least 30% reduction in formation of aggregate foci (****=P<0.00005 and *=P<0.01). PNR-5-18, PNR-4-44, PNR-5-58, and PNR-4-76 reduced aggregate count by ˜20%. PNR-5-02, PNR-4-87, PNR-5-56, and PNR-5-57 reduced aggregates ≥30%.
(§1) Several panels of drugs were tested for their ability to protect against formation of protein aggregates in the following model systems: (i) a cell-culture model of Alzheimer-like protein aggregation (SH-SY5Y-APPSw, a human neuroblastoma cell line expressing the Swedish mutation of Amyloid Precursor Protein (APP), and thus predisposed to form β-amyloid aggregates; (ii) C. elegans strain CL4176, a model of Alzheimer-like amyloidopathy that can be induced to express human Aβ1-42 in muscle, and declines sharply in motility 24-42 hours after induction unless protected by effective drugs; (iii) C. elegans strain CL2355, a model of Alzheimer-like amyloidopathy that expresses human Aβ1-42 in all neurons after upshift induction (as in ii, above), and consequently loses its normal chemotactic responses; (iv) C. elegans strain NL5901, a model of Parkinson's disease that expresses α-synuclein::GFP in neurons, forming fluorescent aggregates with age; aggregates are scored by number and intensity of GFP foci, or scored for neuron loss with age by dye-filling; and (v) C. elegans strain AM141, a model of Huntington-like polyglutamine aggregation, which expresses Q40::YFP (a 40-glutamine tract fused in-frame to yellow fluorescent protein) in muscle cells and accumulates aggregates during aging.

SH-SY5Y-APPSw cells = assay: Thioflavin-T amyloid staining in SH-SY5Y-APPSw neuroblastoma cells; format: cell-based, human; details: for reduction of Thioflavin-fluorescence intensity: 48 hours drug treatment, amyloid fluorescence per nucleus, P<0.0001
Description: FIG. 7 depicts a graph showing PNR-5-02 analogues reduce amyloid accumulation in human neuroblastoma cells overexpressing amyloid precursor protein (APPSw). SH-SY5Y-APPSw, human neuroblastoma cells overexpressing a mutant amyloid precursor protein (APPsw) associated with familial AD. Elevated APPSw leads to substantial formation of amyloid plaque, visualized by fluorescence microscopy after Thioflavin-T staining on day 3 of culture.
as §1
Human neuroblastoma cells (SH-SY5Y-APPsw), express the Swedish mutant of Amyloid Precursor Protein (APPsw) and therefore are predisposed to form amyloid aggregate. […] Amyloid fluorescence is then divided by the number of nuclei, to obtain relative amyloid content per cell.

BRI-Aβ42 mice = assay: Sarcosyl-insoluble protein aggregates in cerebral cortex of BRI-Aβ42 mice; format: in vivo
Description: Total protein and sarcosyl-insoluble protein aggregates were prepared from cerebral cortex of […] mice, treated as in FIG. 4. Aliquots were separated on SDS-acrylamide gels and stained with Sypro Ruby (Molecular Probes). Gel lanes were scanned, and for each aggregate-protein lane the integral of intensity was normalized to the integral for total protein. *P<0.03 by 1-tailed heteroscedastic t test.
Total protein and total sarcosyl-insoluble aggregates were isolated from cerebral cortex of BRI-Aβ42 mice, sacrificed after 10 daily IP injections with PNR-5-02 (as above) or vehicle. Protein aliquots were suspended in Laemmli buffer and resolved by SDS-acrylamide gel electrophoresis, and quantitated by protein-specific fluorescent staining. Results, presented in FIG. 5 as the percent of aggregate protein after normalization to total protein from the same sample, indicate an 18% reduction in aggregates for PNR-5-02-treated mice. Larger aggregates (at the top of each gel lane) were reduced >40%.

C. elegans strain NL5901 = C. elegans strain NL5901 Parkinson's disease model (α-synuclein::GFP aggregates); format: in vivo; details: NL5901, α-synuclein::GFP foci or neuron loss
Description: as §1

C. elegans strain CL4176 = C. elegans strain CL4176 amyloidopathy model (human Aβ1-42 in muscle, motility); format: in vivo; details: CL4176, decline in motility 24-42 hours after induction
Description: as §1

C. elegans strain CL2355 = C. elegans strain CL2355 amyloidopathy model (human Aβ1-42 in all neurons, chemotaxis); format: in vivo; details: CL2355, loss of chemotactic responses
Description: as §1

C. elegans = C. elegans life span; format: in vivo
Description: FIG. 8 depicts a graph showing that PNR-5-02 increase C. elegans life span. The effect of PNR-5-02 on C. elegans life span, at different concentrations both mean and maximum life span of the nematode life span is extended by 15%.
Synchronized eggs (expected to hatch at approximately the same time) were placed on 60-mm nutrient-agar plates to which either vehicle (0.013% DMSO, v/v) for controls or PNR-5-02 (10 μM in 0.013% DMSO) was added. Worms were transferred to fresh plates daily for 7 days, and on alternate days thereafter, scoring worms as alive if they moved spontaneously or in response to gentle prodding. Worms lost for reasons other than natural death were censored (removed from mortality calculations) from that date. PNR-5-02 extended the nematode life span by 15% (FIG. 8).

[2] = cerebral cortex, 10 daily IP injections 5.7 μmole/kg
[3] = at different concentrations, FIG. 8

Compound: COc1cc(/C(C#N)=C/c2cc3ccccc3[nH]2)cc(OC)c1OC [PNR-4-44]
- reduction of aggregate count (aggregate foci) [1]: ~20%

Compound: COc1ccc(/C(C#N)=C/c2cc3ccccc3s2)cc1 [PNR-4-76]
- reduction of aggregate count (aggregate foci) [1]: ~20%

Compound: COc1ccc(/C(C#N)=C/c2c[nH]c3ccccc23)cc1OC [PNR-4-87]
- reduction of Thioflavin-fluorescence intensity (SH-SY5Y-APPSw cells): 34%

Compound: COc1cc(/C(C#N)=C\c2cc3ccccc3s2)cc(OC)c1OC [PNR-5-02]
- protein aggregates in cerebral cortex (in words) (BRI-Aβ42 mice; FIG. 5, P<0.03 by 1-tailed heteroscedastic t test): reduces protein aggregates
- reduction in sarcosyl-insoluble aggregates normalized to total protein (BRI-Aβ42 mice; [2]): 18%
- reduction of larger aggregates (top of each gel lane) (BRI-Aβ42 mice; [2]): > 40%
- protection against formation of protein aggregates (C. elegans strain NL5901): protective
- intensity and number of Q40::YFP aggregates ([1]; AM141 adults imaged at 7 days of adult age, 1 d exposure to 50-nM vs 6 d exposure): as effective in reducing AM141 aggregates as 6-days exposure; also recorded: reduces Q40 aggregated in just 1 day
- protection against formation of protein aggregates ([1]; C. elegans AM141, Q40::YFP aggregates): protective
- protection against formation of protein aggregates (C. elegans strain CL4176): protective
- protection against formation of protein aggregates (C. elegans strain CL2355): protective
- protection against formation of protein aggregates (SH-SY5Y-APPSw cells; SH-SY5Y-APPSw, β-amyloid aggregates): protective
- life span extension (C. elegans; 10 μM in 0.013% DMSO, from eggs): 15%
- maximum life span extension (C. elegans; [3]): 15%
- mean life span extension (C. elegans; [3]): 15%

Compound: COc1cc(/C(C#N)=C/c2coc3ccccc23)cc(OC)c1OC [PNR-5-18]
- reduction of aggregate count (aggregate foci) [1]: ~20%

Compound: COc1cc(OC)cc(/C(C#N)=C/c2nc3ccccc3s2)c1 [PNR-5-58]
- reduction of aggregate count (aggregate foci) [1]: ~20%
- reduction of Thioflavin-fluorescence intensity (SH-SY5Y-APPSw cells): 54%
